This is an account of results in ChEMBL document CHEMBL4627287, “Synthesis and biological evaluation of novel pyrazolo[3,4-b]pyridines as cis-restricted combretastatin A-4 analogues” (Bioorg Med Chem Lett, 2020).

For assay [1], the system named is HeLa. In words: Antiproliferative activity against human HeLa cells assessed as cell growth inhibition measured after 48 hrs by MTT assay. In kind it is functional, cell-based. (Tetrazolium dyes change colour on reduction, which living cells bring about.)
Assay [2] has as its system MCF7. Nature of the assay: Antiproliferative activity against human MCF7 cells assessed as cell growth inhibition measured after 48 hrs by MTT assay. The format is functional, cell-based. Particulars: MCF7, 48 h.
The test system of assay [3] is KYSE-150 cell line. Nature of the assay: Antiproliferative activity against human KYSE-150 cells assessed as cell growth inhibition measured after 48 hrs by MTT assay. In kind it is functional, cell-based. The conditions noted are these: KYSE-150, 48 h.
Assay [4] concerns MDA-MB-231. Nature of the assay: Antiproliferative activity against human MDA-MB-231 cells assessed as cell growth inhibition measured after 48 hrs by MTT assay. In kind it is functional, cell-based. Particulars: MDA-MB-231, 48 h.
Assay [5] has as its target Tubulin (Homo sapiens) (UniProt P68371+Q9H4B7+P0DPH7+P68366+Q13509+Q71U36+P04350+Q3ZCM7+P07437+P68363+Q9BQE3+Q6PEY2+Q13885+Q9BVA1+Q9BUF5). In words: Inhibition of tubulin polymerization (unknown origin) at 10 uM relative to control. In kind it is protein-complex assay.
Assay [6] has as its system HeLa. Nature of the assay: Cell cycle arrest in human HeLa cells assessed as accumulation at G2/M phase measured after 24 hrs by propidium iodide staining based flow cytometry analysis. The format is functional. For orientation: In flow cytometry, cells or beads pass a laser one at a time.
Assay [7] deals with HeLa. Nature of the assay: Cell cycle arrest in human HeLa cells assessed as accumulation at S phase at 18 uM measured after 24 hrs by propidium iodide staining based flow cytometry analysis (reference value: 18.92 %). In kind it is functional.
The test system of assay [8] is HeLa. Nature of the assay: Cell cycle arrest in human HeLa cells assessed as accumulation at S phase at 9 uM measured after 24 hrs by propidium iodide staining based flow cytometry analysis (reference value: 18.92 %). In kind it is functional.
Assay [9] deals with HeLa. Nature of the assay: Cell cycle arrest in human HeLa cells assessed as accumulation at G0/G1 phase at 18 uM measured after 24 hrs by propidium iodide staining based flow cytometry analysis (reference value: 67.86 %). The format is functional.
The test system of assay [10] is HeLa. In words: Cell cycle arrest in human HeLa cells assessed as accumulation at G2/M phase at 36 uM measured after 24 hrs by propidium iodide staining based flow cytometry analysis (reference value: 13.92 %). The format is functional.
In assay [11] the test system is HeLa. In words: Cell cycle arrest in human HeLa cells assessed as accumulation at S phase at 36 uM measured after 24 hrs by propidium iodide staining based flow cytometry analysis (reference value: 18.92 %). The format is functional.
Assay [12] has as its system HeLa. Nature of the assay: Cell cycle arrest in human HeLa cells assessed as accumulation at G0/G1 phase at 9 uM measured after 24 hrs by propidium iodide staining based flow cytometry analysis (reference value: 67.86 %). In kind it is functional.
Assay [13] relates to HeLa. Nature of the assay: Cell cycle arrest in human HeLa cells assessed as accumulation at G2/M phase at 18 uM measured after 24 hrs by propidium iodide staining based flow cytometry analysis (reference value: 13.92 %). In kind it is functional.
For assay [14], the system named is HeLa. In words: Cell cycle arrest in human HeLa cells assessed as accumulation at G2/M phase at 9 uM measured after 24 hrs by propidium iodide staining based flow cytometry analysis (reference value: 13.92 %). The format is functional.
Assay [15] has as its system HeLa. Nature of the assay: Cell cycle arrest in human HeLa cells assessed as accumulation at G0/G1 phase at 36 uM measured after 24 hrs by propidium iodide staining based flow cytometry analysis (reference value: 67.86 %). In kind it is functional.

A value given as a limit tells only on which side of the number the result lay.

The IC50 is the point on the concentration scale where inhibition reaches its midpoint. In the case of `COc1cc(-c2nn(Cc3ccc(C)cc3)c3ncccc23)cc(OC)c1OC`, the concentration for half-maximal inhibition (IC50) in assay [1], in assay [2], in [3] and in assay [4] was above 100 µM throughout.

With `COc1ccc(-n2nc(-c3cc(OC)c(OC)c(OC)c3)c3cccnc32)cc1OC`, the 50% inhibitory concentration (IC50) in [1], in assay [2], in assay [3] and in assay [4] was above 100 µM each time.

On to `COc1cc(-n2nc(-c3ccc4c(c3)OCO4)c3cccnc32)cc(OC)c1OC`, for which the IC50 in assay [1] turned out to be 38.9 µM; in [2], 80.1 µM; in assay [3], 58.9 µM; in assay [4], 79.7 µM.

On to `COc1cc(-c2nn(-c3ccc(C(=O)NN)cc3)c3ncccc23)cc(OC)c1OC`, for which the IC50 in assay [1] was 29.7 µM; in assay [2], 65.2 µM; in [3], above 100 µM; in assay [4] it was above 100 µM.

Take `COc1ccc(F)cc1-c1nn(-c2cc(OC)c(OC)c(OC)c2)c2ncccc12`: the IC50 was 91.8 µM in assay [1], above 100 µM in assay [2], 74.3 µM in assay [3] and 69.9 µM in [4].

Turning to `COc1cc(-n2nc(-c3ccc(C(=O)NN)cc3)c3cccnc32)cc(OC)c1OC`, the IC50 in [1] is 21.9 µM; in [2], above 100 µM; in [3] it was above 100 µM; in [4] it was 51 µM.

Regarding `COc1cc(-n2nc(-c3ccc([N+](=O)[O-])cc3)c3cccnc32)cc(OC)c1OC`, the IC50 in assay [1] is 84.5 µM; in assay [2], above 100 µM; in assay [3], above 100 µM; in assay [4], above 100 µM.

In general, inhibition refers to the share of the control response that was lost under treatment. The low end stands for a weak effect, the high end for a strong effect. With `COc1cc(F)ccc1-c1nn(-c2cc(OC)c(OC)c(OC)c2)c2ncccc12`, the IC50 worked out at 58.3 µM in assay [1], 87.6 µM in assay [2], 87.4 µM in assay [3] and 47 µM in [4]. In addition, in [5], the inhibition was 20%.

With `COc1ccc(-c2nn(-c3cc(OC)c(OC)c(OC)c3)c3ncccc23)cc1OC`, the IC50 is 22.7 µM in assay [1], 96.8 µM in assay [2], above 100 µM in assay [3] and 28.7 µM in [4]. This compound also showed an inhibition in assay [5] of 14%.

As to `COc1ccccc1-c1nn(-c2cc(OC)c(OC)c(OC)c2)c2ncccc12`, the IC50 in [1], in [2], in assay [3] and in assay [4] was above 100 µM in each case.

With `COc1cccc(-c2nn(-c3cc(OC)c(OC)c(OC)c3)c3ncccc23)n1`, the IC50 in assay [1], in [2], in assay [3] and in assay [4] was above 100 µM in each case.

Regarding `COc1cc(-n2nc(-c3ccc(Cl)c(Cl)c3)c3cccnc32)cc(OC)c1OC`, the IC50 in assay [1], in assay [2], in assay [3] and in [4] was above 100 µM each time.

Regarding `COc1cc(-c2nn(Cc3ccc(F)cc3)c3ncccc23)cc(OC)c1OC`, the IC50 in [1] is 92.7 µM; in assay [2] it was above 100 µM; in [3], above 100 µM; in assay [4] it was 61.5 µM.

Consider `COc1ccc(-c2nn(-c3cc(OC)c(OC)c(OC)c3)c3ncccc23)cc1O`, for which the IC50 turned out to be 18.1 µM in assay [1], 27.2 µM in assay [2], 62.8 µM in assay [3] and 27 µM in assay [4]. Also, the inhibition in [5] was determined as 31%. For the same compound, the Activity entry in [6] was “Dose-dependent effect”; in assay [7], 14.85%; in assay [8] it was 21.18%; in assay [9], 50.48%; in assay [10], 48.13%; in [11] it was 21.25%. In addition, the Activity in assay [12] was 51.89%; in [13], 34.87%; in assay [14], 26.93%; in assay [15] it was 30.61%.

As for `COc1cc(-c2nn(-c3ccc(Cl)cc3)c3ncccc23)cc(OC)c1OC`, the IC50 in assay [1], in assay [2], in [3] and in assay [4] was above 100 µM each time.

In the case of `COC(=O)c1ccc(-n2nc(-c3cc(OC)c(OC)c(OC)c3)c3cccnc32)cc1`, the IC50 in [1], in assay [2], in [3] and in [4] was above 100 µM throughout.

In the case of `COc1ccc(/C=C\c2cc(OC)c(OC)c(OC)c2)cc1O` [COMBRETASTATIN A4], the half-inhibitory concentration (IC50) came out at 0.003 µM in [1], 0.6 µM in assay [3] and 0.017 µM in assay [4].

With `COc1ccc(-c2nn(-c3cc(OC)c(OC)c(OC)c3)c3ncccc23)cc1N`, the half-maximal inhibitory concentration (IC50) was 33.4 µM in assay [1], above 100 µM in assay [2], 58.1 µM in assay [3] and above 100 µM in assay [4].

In the case of `COc1ccc(-c2nn(-c3cc(OC)c(OC)c(OC)c3)c3ncccc23)cc1[N+](=O)[O-]`, the 50% inhibitory concentration (IC50) in [1] was 23.5 µM; in assay [2], 28.4 µM; in assay [3] it was above 100 µM; in assay [4] it was 37.3 µM. This compound gave an inhibition in assay [5] of 16%.

With `COc1cc(-n2nc(-c3ccccc3OC(F)(F)F)c3cccnc32)cc(OC)c1OC`, the IC50 in [1] is 78.9 µM; in assay [2], above 100 µM; in assay [3], above 100 µM; in assay [4], 60.5 µM.

On to `COc1ccc(-c2nn(-c3cc(OC)c(OC)c(OC)c3)c3ncccc23)cc1`, for which the IC50 in [1], in [2], in [3] and in [4] was above 100 µM in each case.

For `COc1cc(-n2nc(-c3ccc(C)cc3)c3cccnc32)cc(OC)c1OC`, the concentration for half-maximal inhibition (IC50) in assay [1], in assay [2], in [3] and in assay [4] was above 100 µM each time.

With `COc1cc(-n2nc(-c3ccc(Cl)cc3)c3cccnc32)cc(OC)c1OC`, the IC50 in [1] was above 100 µM; in assay [2], 97.6 µM; in assay [3], above 100 µM; in assay [4], 84.3 µM.

With `COc1cc(-n2nc(-c3ccc(F)cc3)c3cccnc32)cc(OC)c1OC`, the IC50 in [1] was 51.4 µM; in assay [2] it was 76.7 µM; in assay [3] it was 41.1 µM; in assay [4], 56.4 µM. In addition, the inhibition in assay [5] is 18%.

For the compound `COc1cc(-n2nc(-c3ccc(C#N)cc3)c3cccnc32)cc(OC)c1OC`, the 50% inhibitory concentration (IC50) in assay [1] was 72.5 µM; in [2] it was 45.9 µM; in assay [3], 85.9 µM; in assay [4] it was 82.5 µM.

For the compound `COc1cccc(-c2nn(-c3cc(OC)c(OC)c(OC)c3)c3ncccc23)c1`, the IC50 is 85 µM in [1], 86.9 µM in assay [2], above 100 µM in assay [3] and 86.7 µM in assay [4].

For `COC(=O)c1ccc(-c2nn(-c3cc(OC)c(OC)c(OC)c3)c3ncccc23)cc1`, the IC50 in assay [1], in assay [2], in assay [3] and in assay [4] was above 100 µM each time.
